Test [1] in a line: Membrane cholesterol domain structural integrity, x-ray diffraction (Example 9). Particulars: C/P 1.5:1. The method, then: Multilamellar vesicles (MLVs) were prepared as binary mixtures that include palmitoyloleoylphosphatidylcholine (POPC) (1.0 mg total phospholipid per sample) and cholesterol at an elevated cholesterol-to-phospholipid (C/P) mole ratio of 1.5:1. […] Samples were shell-dried under nitrogen gas and placed under vacuum for 3 hours to remove residual solvent at room temperature. After desiccation, each sample was resuspended in saline buffer (0.5 mM HEPES, 154 mM NaCl, pH 7.3) to yield a final phospholipid concentration of 2.5 mg/mL. Lipid suspensions were then vortexed for 3 minutes at ambient temperature to form MLVs.
Briefly, a 100 μL aliquot of each MLV preparation (containing 250 μg MLV) was transferred to a Lucite® sedimentation cell fitted with an aluminum foil substrate designed to collect MLVs into a single membrane pellet upon centrifugation. Samples were then loaded into a Sorvall AH-629 swinging bucket rotor (DuPont Corp., Wilmington, Del.) and centrifuged at 35,000 g, 5° C., for 90 minutes.
After centrifugal orientation, sample supernatants were aspirated and aluminum foil substrates, each supporting a single membrane pellet, were removed from the sedimentation cells. Sample pellets were dried for 5-10 minutes at ambient conditions, mounted onto curved glass supports, and placed in hermetically-sealed, brass or glass containers (for immediate analysis or temporary storage, respectively). All x-ray diffraction experiments were conducted at 20° C., 74% relative humidity. The latter was established by exposing membrane samples to saturated solutions of […] (K2C4H4O6.½H2O) for at least 1 hour prior to experimental analysis.
Oriented membrane samples were aligned at grazing incidence with respect to a collimated, mono-chromatic CuKα x-ray beam (Kα1 and Kα2 unresolved; λ=1.54 Å) produced by a Rigaku Rotaflex RU-200, high-brilliance microfocus generator (Rigaku-MSC, The Woodlands, Tex.) as previously described (Mason et al., Biophys. J., vol. 55(4), pages 769-778 (1989)). The samples were initially subjected to x-ray diffraction analysis at least 12 hours after formation of the membrane pellets and retested for up to several days. Analytical x-rays were generated by electron bombardment of a rotating copper anode and are filtered through a thin nickel foil to provide monochromatic radiation (λ=1.54 Å). Collimation of the x-ray beam was achieved using a single Franks mirror. Diffraction data were collected on a one-dimensional, position-sensitive electron detector (Hecus X-ray Systems, Graz, Austria) at a sample-to-detector distance of 150 mm from the sample site.
The d-space for any given membrane multi bilayer is a measurement of the unit cell periodicity of the membrane lipid bilayer (e.g., the distance from the center of one lipid bilayer to the next including surface hydration), and is calculated from Bragg's Law, hλ=2d sin θ, where h is the diffraction order, λ is the wavelength of the x-ray radiation (1.54 Å), d is the membrane lipid bilayer unit cell periodicity, and θ is the Bragg angle equal to one-half the angle between the incident beam and scattered beam.
The presence of cholesterol domains in a given membrane sample results in the production of distinct Bragg (diffraction) peaks having singular periodicity values of 34 and 17 Å (typically referred to as first- and second-order cholesterol domain peaks). Under the specific temperature and relative humidity conditions established for these experiments, the second-order, 17 Å cholesterol domain peak was well-delineated from other, neighboring cholesterol and phospholipid diffraction peaks and was thus used to quantitate relative cholesterol domain peak intensity. Routines written in Origin 8.6 (OriginLab Corporation, Northampton, Mass.) were used to determine total peak area (associated with all diffraction peaks in a given pattern) against which the second-order cholesterol domain peak was normalized.

A further test concerns human sdLDL. Kind of test: Copper-induced sdLDL oxidation (Example 12). It counts as biochemical. Particulars: 10.0 μM; copper-induced oxidation 1 hour. The method, then:
All samples, with the exception of non-oxidized sdLDL controls, were subjected to copper-induced oxidation for 1 hour. Human umbilical vein endothelial cells (HUVECs) were incubated with the various sdLDL samples, stimulated with calcium, and monitored for nitric oxide (NO) and peroxynitrite (ONOO^−) release using nanosensor technology.

Test [2] in a line: Lipid hydroperoxide (LOOH) formation in cholesterol-enriched model membranes under autoxidation (Example 3). It counts as biochemical. Particulars: EPA:lipids 1:30; C/P 0.6:1; autoxidation 37° C., 72 hours. On the procedure:
Levels of lipid hydroperoxides were also measured in cholesterol-enriched membrane prepared in the absence of EPA as a control. […] CHOD-iodide color reagent (stock) was prepared according to a procedure modified from El-Saadani et […], Goher […], Jurgens G. A spectrophotometric assay for lipid peroxides in serum lipoproteins using commercially available reagent. (J. Lipid. […] Membrane samples consisting of DLPC±cholesterol were prepared as follows. Component lipids (in chloroform) were transferred to 13×100 mm test tubes and shell-dried under a steady stream of nitrogen gas while vortex mixing. The lipid was co-dried with EPA. Residual solvent was removed by drying for a minimum of 3 h under vacuum. After desiccation, each membrane sample was resuspended in diffraction buffer (0.5 mM HEPES, 154 mM NaCl, pH 7.3) to yield a final phospholipid concentration of 1.0 mg/mL. Multilamellar vesicles (MLV) were formed by vortex mixing for 3 minutes at ambient temperature. […] Absorbances were measured against a CHOD blank at 365 nm using a Beckman DU-640 spectrophotometer. The CHOD colorimetric assay is based on the oxidation of iodide (I^-) by lipid hydroperoxides (LOOH) and proceeds according to the following reaction scheme: The quantity of triiodide anion (I3^-) liberated in this reaction is directly proportional to the amount of lipid hydroperoxides present in the membrane sample.

Consider `CC/C=C\C/C=C\C/C=C\C/C=C\C/C=C\CCCC(=O)O` [EPA, cis-5,8,11,14,17-eicosapentaenoic acid], for which, in test [1] (D/P mole ratio 1:30), the “% change Vs control (cholesterol domain peak intensity)” value is −65.5 ± 17.1%, the “Relative Cholesterol Domain Peak Intensity” value was 14.6±5 and the “reduction in cholesterol domain peaks compared to vehicle” value came to 65%. In addition, in test [1] (D/P mole ratio 1:60), the “% change (vs. Control)” value was −30.2 ± 27.9% and the “Relative Cholesterol Domain Peak Intensity” value is 29.5 ± 10.9. Also, in test [1] (D/P mole ratio 1:90), the “% change (vs. Control)” value is −15.0 ± 12.6% and the “Relative Cholesterol Domain Peak Intensity” value was found to be 36.0 ± 3.1. In addition, in the test on human sdLDL, the “reduction of sdLDL oxidation compared to vehicle” value is above 90%. Besides, in test [2], the LOOH levels is 728 ± 30 µM and the “reduction of LOOH levels compared to untreated controls” value is on record as “greater than 90%”.

Values taken from patent US20190209506A1, “METHODS OF REDUCING OR PREVENTING OXIDATION OF LDL OR LIPID MEMBRANES IN A SUBJECT IN NEED THEREOF” (Amarin Pharmaceuticals Ireland Limited, priority 2018, published 2019).
